The values below come from ChEMBL document CHEMBL1671750, “Emergence and molecular characterization of extensively drug-resistant Mycobacterium tuberculosis clinical isolates from the Delhi Region in India” (2010).

Calls of active or inactive are those of the source. The calls are words filed in the database; no cut-off is given here.

Holding throughout (assay type): functional, organism-based
For assay [1], the system named is Mycobacterium tuberculosis. As to the kind of experiment: Antimycobacterial activity against extensively drug-resistant Mycobacterium tuberculosis isolate 2403 obtained from sputum of patient at 100 ug/ml by Bactec MGIT960 modified proportion method.
For assay [2], the system named is Mycobacterium tuberculosis. As to the kind of experiment: Antimycobacterial activity against extensively drug-resistant Mycobacterium tuberculosis isolate 2301 obtained from sputum of patient at 100 ug/ml by Bactec MGIT960 modified proportion method.
Assay [3] relates to Mycobacterium tuberculosis. As to the kind of experiment: Antimycobacterial activity against extensively drug-resistant Mycobacterium tuberculosis isolate 2911 obtained from sputum of patient at 100 ug/ml by Bactec MGIT960 modified proportion method.
Assay [4] has as its system Mycobacterium tuberculosis. As to the kind of experiment: Antimycobacterial activity against extensively drug-resistant Mycobacterium tuberculosis isolate 2474 obtained from sputum of patient at 100 ug/ml by Bactec MGIT960 modified proportion method.
The subject of assay [5] is Mycobacterium tuberculosis. As to the kind of experiment: Antimycobacterial activity against extensively drug-resistant Mycobacterium tuberculosis isolate 625 obtained from sputum of patient at 100 ug/ml by Bactec MGIT960 modified proportion method.
Assay [6] relates to Mycobacterium tuberculosis. The experiment in a line: Antimycobacterial activity against extensively drug-resistant Mycobacterium tuberculosis isolate 761 obtained from pus of patient at 100 ug/ml by Bactec MGIT960 modified proportion method.

Turning to `NC(=O)c1cnccn1`, the outcome in assay [1], in assay [2], in assay [4], in assay [5] and in assay [6] was inactive. For the same compound, the outcome in assay [3] was Active.
